MIC data for five molecules are collected here from patent US5262411A, “Isocephem derivatives, and antimicrobial composition containing the derivatives” (Otsuka Pharmaceutical Co., Ltd., priority 1989, dated 1993).

What all share (assay type): cell-based
Assay [1] relates to S. marcescens IFO 12648. Description: MIC against S. marcescens IFO 12648 by the plate diluted method. The settings on record: Serratia marcescens, IFO12648; S. marcescens IFO 12648; 1×10^6 cells/ml; read-out: MIC. The method, then: (§1) In order to investigate the in vitro activity of the test compounds against various bacteria, the minimal inhibitory concentration (MIC) values were determined by the plate diluted method (See CHEMOTHERAPY, 22, 1126-1128, 1974.)
(§2) Each strain was adjusted to 1×10^6 cells/ml (O.D. 600 mμ, 0.07 to 0.16).

The test system of assay [2] is A. calcoaceticus Ac-54. Description: MIC against A. calcoaceticus Ac-54 by the plate diluted method. The note with it: Acinetobacter calcoaceticus, AC54; A. calcoaceticus Ac-54; 1×10^6 cells/ml; read-out: MIC. The method, then: as §1, §2
Assay [3] deals with K. pneumoniae NCTC-9632. Description: MIC against K. pneumoniae NCTC-9632 by the plate diluted method. The settings on record: Klebsiella pneumoniae, NCTC9632; K. pneumoniae NCTC-9632; 1×10^6 cells/ml; read-out: MIC. The method, then: as §1, §2
The subject of assay [4] is E. coli NIHJ JC-2. Description: MIC against E. coli NIHJ JC-2 by the plate diluted method. The note with it: Escherichia coli, NIHJJC2. As to the method: as §1, §2
The test system of assay [5] is M. moganii IIDkono. Description: MIC against M. moganii IIDkono by the plate diluted method. As to the method: as §1, §2
The subject of assay [6] is P. aeruginosa ATCC-10145. Description: MIC against P. aeruginosa ATCC-10145 by the plate diluted method. The settings on record: Pseudomonas aeruginosa, ATCC10145; P. aeruginosa ATCC-10145; 1×10^6 cells/ml; read-out: MIC. The method, then:
as §1, §2

Assay [7] has as its system P. aeruginosa E-2. As to the kind of experiment: MIC against P. aeruginosa E-2 by the plate diluted method. The settings on record: Pseudomonas aeruginosa, E2; P. aeruginosa E-2; 1×10^6 cells/ml; read-out: MIC. As to the method: as §1, §2
Assay [8] relates to S. aureaus FDA-209P. Description: MIC against S. aureaus FDA-209P by the plate diluted method. The note with it: Staphylococcus aureus, FDA209P; S. aureaus FDA-209P; 1×10^6 cells/ml; read-out: MIC. As to the method: as §1, §2
Setting [9] is: E. coli NIHJ JC-2, 1×10^6 cells/ml, read-out: MIC.
Setting [10] is: M. moganii IIDkono, 1×10^6 cells/ml, read-out: MIC.

A word on the MIC: it is the least concentration at which growth counts as inhibited.

≈ marks a conversion by molar mass, not a printed value. Like-named read-outs stand apart in the source and are kept apart here.

In the case of `Nc1nc(/C(=N/OCc2cc(=O)c(O)cn2O)C(=O)N[C@@H]2C(=O)N3C(C(=O)[O-])=C(CSc4cc[n+](CC(=O)O)cc4)CS[C@H]23)ns1` [No. 25, (6R,7R)-7-[(Z)-2-(5-amino-1,2,4-thiadiazol-3-yl)-2-(1,5-dihydroxy-4-pyridone-2-ylmethoxyimino)acetamide]-3-(1-carboxymethylpyridinium-4-ylthiomethyl)-3-cephem-4-carboxylate], the MIC is 0.024 µg/mL (≈ 0.0347 µM) in assay [1]; 0.39 µg/mL (≈ 0.565 µM) in assay [2]; 0.024 µg/mL (≈ 0.0347 µM) in assay [3]; 0.2 µg/mL (≈ 0.29 µM) in assay [4]; 0.05 µg/mL (≈ 0.0724 µM) in assay [5]; 0.1 µg/mL (≈ 0.145 µM) in assay [6]. Moreover, the MIC in assay [7] was determined as 0.2 µg/mL (≈ 0.29 µM); in assay [8] it was 6.25 µg/mL (≈ 9.05 µM).
Turning to `Nc1nc(/C(=N/OCc2cc(=O)c(O)cn2O)C(=O)N[C@@H]2C(=O)N3C(C(=O)O)=C(CSc4snc(O)c4C(=O)O)CS[C@H]23)ns1` [No. 23, (6R,7R)-7-[(Z)-2-(5-amino-1,2,4-thiadiazol-3-yl)-2-(1,5-dihydroxy-4-pyridone-2-ylmethoxyimino)acetamide]-3-(4-carboxy-3-hydroxyiso-thiazol-5-ylthiomethyl)-3-cephem-4-carboxylic acid], the MIC in assay [1] is 0.024 µg/mL (≈ 0.0343 µM); in assay [2], 0.1 µg/mL (≈ 0.143 µM); in assay [3], 0.024 µg/mL (≈ 0.0343 µM); in assay [4] (setting [9]), 0.1 µg/mL (≈ 0.143 µM); in assay [5], 0.05 µg/mL (≈ 0.0716 µM); in assay [6] it was 0.1 µg/mL (≈ 0.143 µM). For the same molecule, the MIC in assay [7] amounted to 0.1 µg/mL (≈ 0.143 µM); in assay [8], 100 µg/mL (≈ 143 µM).
For the molecule `Nc1nc(/C(=N/OCc2cc(=O)c(O)cn2O)C(=O)N[C@@H]2C(=O)N3C(C(=O)O)=C(CSc4nnnn4CC(=O)O)SC[C@H]23)ns1` [No. 20, (6S,7S)-7-[(Z)-2-(5-amino-1,2,4-thiadiazol-3-yl)-2-(1,5-dihydroxy-4-pyridone-2-ylmethoxyimino)acetamide]-3-(1-carboxymethyl-1H-tetrazol-5-ylthiomethyl)-isocephem-4-carboxylic acid], the MIC in assay [1] is 0.012 µg/mL (≈ 0.0176 µM); in assay [2] it was 0.05 µg/mL (≈ 0.0734 µM); in assay [3], 0.012 µg/mL (≈ 0.0176 µM); in assay [4] (setting [9]), 0.05 µg/mL (≈ 0.0734 µM); in assay [5] (setting [10]) it was 0.024 µg/mL (≈ 0.0352 µM); in assay [6] it was 0.05 µg/mL (≈ 0.0734 µM). Besides, the values for the MIC in assay [7] and in assay [8] were 0.05 µg/mL (≈ 0.0734 µM) and 100 µg/mL (≈ 147 µM), respectively.
For the molecule `Nc1nc(/C(=N/OCc2cc(=O)c(O)cn2O)C(=O)N[C@@H]2C(=O)N3C(C(=O)[O-])=C(CSc4cc[n+](CC(=O)O)cc4)SC[C@H]23)ns1` [No. 24, (6S,7S)-7-[(Z)-2-(5-amino-1,2,4-thiadiazol-3-yl)-2-(1,5-dihydroxy-4-pyridone-2-ylmethoxyimino)acetamide]-3-(1-carboxymethylpyridinium-4-ylthiomethyl)isocephem-4-carboxylate], the MIC in assay [1] was 0.024 µg/mL (≈ 0.0347 µM); in assay [2] it was 0.39 µg/mL (≈ 0.565 µM); in assay [3] it was 0.024 µg/mL (≈ 0.0347 µM); in assay [4] (setting [9]) it was 0.1 µg/mL (≈ 0.145 µM); in assay [5] (setting [10]), 0.024 µg/mL (≈ 0.0347 µM); in assay [6] it was 0.1 µg/mL (≈ 0.145 µM). Also, the figures for the MIC in assay [7] and in assay [8] were 0.2 µg/mL (≈ 0.29 µM) and 12.5 µg/mL (≈ 18.1 µM), respectively.
For `Cc1nc(SCC2=C(C(=O)O)N3C(=O)[C@@H](NC(=O)/C(=N\OCc4cc(=O)c(O)cn4O)c4nsc(N)n4)[C@H]3CS2)sc1CC(=O)O` [No. 18, (6S,7S)-7-[(Z)-2-(5-amino-1,2,4-thiadiazol-3-yl)-2-(1,5-dihydroxy-4-pyridone-2-ylmethoxyimino)acetamide]-3-(5-carboxymethyl-4-methylthiazol-2-ylthiomethyl)isocephem-4-carboxylic acid], the MIC was 0.024 µg/mL (≈ 0.0338 µM) in assay [1]; 0.1 µg/mL (≈ 0.141 µM) in assay [2]; 0.024 µg/mL (≈ 0.0338 µM) in assay [3]; 0.1 µg/mL (≈ 0.141 µM) in assay [4] (setting [9]); 0.05 µg/mL (≈ 0.0703 µM) in assay [5]; 0.1 µg/mL (≈ 0.141 µM) in assay [6]. In addition, the MIC in assay [7] came out at 0.1 µg/mL (≈ 0.141 µM); in assay [8] it was 100 µg/mL (≈ 141 µM).
